The source of these data is patent US10519162B2, “6,7-dihydropyrazolo[1,5-α]pyrazin-4(5H)-one compounds and their use as negative allosteric modulators of mGluR2 receptors” (Janssen Pharmaceutica NV, priority 2014, dated 2019).

One data set deals with T1, human mGlu2 receptor (Homo sapiens, UniProt Q14416).
T1 construct: expressed in transfected cells; host or cells: CHO cells
Nature of the data set: [35S]GTPγS binding assay (mGluR2 negative allosteric modulation, glutamate ~EC80 60 μM). The data set is classed as biochemical. As to conditions: for Emax: read-out: GTPγS-hmGluR2 anGT Emax; for IC50: glutamate ~EC80 (60 μM), pIC50 = −log IC50 (M). On the procedure: 1) [^35S]GTPγS Binding Assay
[^35S]GTPγS Binding Assay
Total reaction volume was 200 μl. […] Membrane-bound radioactivity was counted in a Topcount.
(Binding of GTPγS marks nucleotide exchange on a G protein.)

Where [1] appears, read: maximal % inhibition relative to the control glutamate response (EC80 glutamate).
Where [2] appears, read: membranes from CHO cells transfected with human mGlu2 receptor, read-out: GTPγS-hmGluR2 anGT pIC50 (converted).

Each structure is given as a SMILES string. Read-outs that look alike come from different tables or passages of the source.

T1 sequence (Q14416 19-872): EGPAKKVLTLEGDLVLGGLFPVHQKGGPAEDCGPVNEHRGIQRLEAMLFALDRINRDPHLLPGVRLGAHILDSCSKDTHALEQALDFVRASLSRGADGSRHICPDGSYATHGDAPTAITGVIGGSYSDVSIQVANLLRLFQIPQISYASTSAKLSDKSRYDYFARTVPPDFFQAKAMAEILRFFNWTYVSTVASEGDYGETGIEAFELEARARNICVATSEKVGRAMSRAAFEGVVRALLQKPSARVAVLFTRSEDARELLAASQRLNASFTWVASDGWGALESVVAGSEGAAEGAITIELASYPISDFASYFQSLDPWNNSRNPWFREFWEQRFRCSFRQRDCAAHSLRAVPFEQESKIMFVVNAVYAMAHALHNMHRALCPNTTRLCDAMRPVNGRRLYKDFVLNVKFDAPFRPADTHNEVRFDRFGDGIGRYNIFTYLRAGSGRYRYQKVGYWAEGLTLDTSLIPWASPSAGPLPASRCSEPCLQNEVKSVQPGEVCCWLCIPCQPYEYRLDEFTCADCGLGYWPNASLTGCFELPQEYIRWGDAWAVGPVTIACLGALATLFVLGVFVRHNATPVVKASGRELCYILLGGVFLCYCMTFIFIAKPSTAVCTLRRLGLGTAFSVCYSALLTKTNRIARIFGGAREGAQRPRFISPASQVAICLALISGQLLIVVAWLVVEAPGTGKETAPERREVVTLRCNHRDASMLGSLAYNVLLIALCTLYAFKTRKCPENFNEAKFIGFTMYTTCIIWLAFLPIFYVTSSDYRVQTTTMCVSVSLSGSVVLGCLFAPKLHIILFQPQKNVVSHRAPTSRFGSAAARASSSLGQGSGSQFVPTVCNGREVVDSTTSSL

By melting point is commonly meant the temperature, or range, at which the solid turns liquid. One may read the Emax as the maximal effect, on the per cent scale that the assay sets. In turn, `Cc1c(F)cncc1C(=O)Nc1cnn2c1C(=O)N(c1ccc(C(F)(F)F)cc1)C[C@@H]2C` [Co. No. 136] showed a melting point of 89.55 °C. The Emax on human mGlu2 receptor (setting [1]) worked out at 106%. The IC50 on human mGlu2 receptor (setting [2]) is 2.45e-08 M.
As for `Cc1cc(C(=O)Nc2cnn3c2C(=O)N(c2ccc(C(F)(F)F)cc2)C[C@@H]3C)nc(N)n1` [Co. No. 180], the melting point turned out to be 265.47 °C. The Emax at human mGlu2 receptor (setting [1]) came to 107%. Also, the IC50 on human mGlu2 receptor (setting [2]) was 4.37e-08 M.
In the case of `CC(=O)Nc1ccc(C(=O)Nc2cnn3c2C(=O)N(c2ccc(C(F)(F)F)cc2)C[C@@H]3C)cn1` [Co. No. 159, 6-acetamido-N-[(7S)-7-methyl-4-oxo-5-[4-(trifluoromethyl)phenyl]-6,7-dihydropyrazolo[1,5-a]pyrazin-3-yl]pyridine-3-carboxamide], the melting point was 265 °C. In addition, on human mGlu2 receptor (setting [1]), the Emax was found to be 106%. For the same molecule, the IC50 on human mGlu2 receptor (setting [2]) is 6.03e-09 M.
The corresponding values for `C[C@H]1CN(c2ccc(C(F)(F)F)cc2)C(=O)c2c(NC(=O)c3ccc(F)cc3)cnn21` [Co. No. 49] are 119.36 °C, 101% and 1.32e-08 M.
Molecule `C[C@@H]1CN(c2ccc(C(F)(F)F)cc2)C(=O)c2c(NC(=O)c3cccnc3)cnn21` [Co. No. 188] returned a melting point of 152.2 °C. The Emax on human mGlu2 receptor (setting [1]) turned out to be 105%. In addition, the IC50 on human mGlu2 receptor (setting [2]) was 2.45e-07 M.
`Cc1cc(C(=O)Nc2cnn3c2C(=O)N(c2ccc(C(F)(F)F)c(Cl)c2)C[C@@H]3C)cc(Cl)n1` [Co. No. 142] displayed a melting point of 124.01 °C. Further, the Emax on human mGlu2 receptor (setting [1]) is 109%. Besides, the IC50 on human mGlu2 receptor (setting [2]) was 2.45e-09 M.
Turning to `COc1cccc(C(=O)Nc2cnn3c2C(=O)N(c2ccc(C(F)(F)F)cc2)C[C@@H]3C)n1` [Co. No. 21], the melting point was 199.24 °C. The Emax on human mGlu2 receptor (setting [1]) came to 106%. In addition, the IC50 on human mGlu2 receptor (setting [2]) is 4.68e-09 M.
For `COc1ccnc(C(=O)Nc2cnn3c2C(=O)N(c2ccc(C(F)(F)F)cc2)C[C@@H]3C)c1` [Co. No. 60], in that order: 227.69 °C, 111% and 2.45e-08 M.
For `COc1cc(F)cc(C(=O)Nc2cnn3c2C(=O)N(c2ccc(C(F)(F)F)cc2)C[C@@H]3C)c1` [Co. No. 17], in that order: 136.53 °C, 114% and 3.72e-09 M.
The molecule `Cc1nccc(C(=O)Nc2cnn3c2C(=O)N(c2ccc(C(F)(F)F)cc2)C[C@@H]3C)c1C` [Co. No. 156] showed a melting point of 182.69 °C. For the same molecule, on human mGlu2 receptor (setting [1]), the “GTPγS-hmGluR2 anGT Emax” value is recorded as 113%. For the same molecule, the IC50 on human mGlu2 receptor (setting [2]) was 2.4e-08 M.
Turning to `COc1ccc(C(=O)Nc2cnn3c2C(=O)N(c2ccc(C(F)(F)F)cc2)C[C@@H]3C)c(F)c1` [Co. No. 44], the melting point is 214.58 °C. The Emax on human mGlu2 receptor (setting [1]) stood at 115%. The IC50 on human mGlu2 receptor (setting [2]) was 1.12e-08 M.
`C[C@H]1CN(c2ccc(C(F)(F)F)cc2)C(=O)c2c(NC(=O)c3cncc(F)c3)cnn21` [Co. No. 31] displayed a melting point of 185.29 °C. At human mGlu2 receptor (setting [1]), the Emax came out at 114%. The IC50 on human mGlu2 receptor (setting [2]) is 7.24e-09 M.
Regarding `COc1cccc(C(=O)Nc2cnn3c2C(=O)N(c2ccc(C(F)(F)F)c(OC)n2)C[C@@H]3C)c1` [Co. No. 56], the melting point amounted to 160.66 °C. Further, the maximal response (Emax) on human mGlu2 receptor (setting [1]) was determined as 107%. Besides, the IC50 on human mGlu2 receptor (setting [2]) was 2.04e-08 M.
`COCC1CN(c2ccc(C(F)(F)F)cc2)C(=O)c2c(NC(=O)c3ccccc3F)cnn21` (single isomer, unassigned) [Co. No. 62b] registered a melting point of 162.51 °C. For the same molecule, the “GTPγS-hmGluR2 anGT Emax” value at human mGlu2 receptor (setting [1]) is 66%. Moreover, on human mGlu2 receptor (setting [2]), the IC50 is 4.79e-06 M.
Molecule `Cc1cccnc1C(=O)Nc1cnn2c1C(=O)N(c1ccc(C(F)(F)F)cc1)C[C@@H]2C` [Co. No. 57] yielded a melting point of 292.16 °C. The Emax at human mGlu2 receptor (setting [1]) stood at 103%. Moreover, the IC50 at human mGlu2 receptor (setting [2]) was 2.04e-08 M.
Consider `Cc1ncc(C(=O)Nc2cnn3c2C(=O)N(c2ccc(C(F)(F)F)cc2)C[C@@H]3C)cn1` [Co. No. 88], for which the melting point came to 231.1 °C. Also, at human mGlu2 receptor (setting [1]), the Emax turned out to be 99%. Also, the IC50 at human mGlu2 receptor (setting [2]) is 2.24e-07 M.
Molecule `Cc1cc(C(=O)Nc2cnn3c2C(=O)N(c2ccc(C(F)(F)F)c(F)c2)C[C@@H]3C)cc(C)n1` [Co. No. 129] had a melting point of 148.36 °C. Further, the Emax at human mGlu2 receptor (setting [1]) came to 108%. Also, the IC50 at human mGlu2 receptor (setting [2]) was 5.62e-09 M.
As to `Cc1ncccc1C(=O)Nc1cnn2c1C(=O)N(c1ccc(C(F)(F)F)cc1)C[C@@H]2C` [Co. No. 66], the melting point was 120.37 °C. Besides, the Emax at human mGlu2 receptor (setting [1]) was found to be 104%. Also, the IC50 on human mGlu2 receptor (setting [2]) is 2.75e-08 M.
As to `C[C@H]1CN(c2ccc(C(F)F)c(Cl)c2)C(=O)c2c(NC(=O)c3ccc(N)nc3)cnn21` [Co. No. 40], the melting point is 133.34 °C. Further, at human mGlu2 receptor (setting [1]), the “GTPγS-hmGluR2 anGT Emax” value turned out to be 113%.
For `COCc1cncc(C(=O)Nc2cnn3c2C(=O)N(c2ccc(C(F)(F)F)cc2)C[C@@H]3C)c1` [Co. No. 138], the melting point came to 149.93 °C. The Emax on human mGlu2 receptor (setting [1]) is 106%. Besides, the IC50 at human mGlu2 receptor (setting [2]) is 2.95e-08 M.
For `COc1ccc(F)cc1C(=O)Nc1cnn2c1C(=O)N(c1ccc(C(F)(F)F)cc1)C[C@@H]2C` [Co. No. 10], in that order: 204.35 °C, 113% and 2.57e-09 M.
The corresponding values for `COc1c(F)cccc1C(=O)Nc1cnn2c1C(=O)N(c1ccc(C(F)(F)F)cc1)C[C@@H]2C` [Co. No. 19] are 170.98 °C, 117% and 4.37e-09 M.
For `C[C@H]1CN(c2ccc(C(F)(F)F)cc2)C(=O)c2c(NC(=O)c3ncco3)cnn21` [Co. No. 63, N-[(7S)-7-Methyl-4-oxo-5-[4-(trifluoromethyl)phenyl]-6,7-dihydropyrazolo[1,5-a]pyrazin-3-yl]oxazole-2-carboxamide], the melting point was 204.97 °C. The Emax at human mGlu2 receptor (setting [1]) amounted to 109%. Further, on human mGlu2 receptor (setting [2]), the IC50 is 2.63e-08 M.
For `C[C@H]1CN(c2ccc(C(F)(F)F)cc2)C(=O)c2c(NC(=O)c3cncn3C)cnn21` [Co. No. 91], in that order: 162.27 °C, 101% and 3.47e-07 M.
Molecule `C[C@H]1CN(c2ccc(C(F)(F)F)cc2)C(=O)c2c(NC(=O)CC3CC3)cnn21` [Co. No. 73] displayed a melting point of 152.2 °C. Moreover, the Emax at human mGlu2 receptor (setting [1]) came to 98%. Further, the IC50 at human mGlu2 receptor (setting [2]) is 4.79e-08 M.
Turning to `COc1ccc(C(=O)Nc2cnn3c2C(=O)N(c2ccc(C(F)(F)F)cc2)C[C@@H]3C)cc1` [Co. No. 25], the melting point worked out at 164.82 °C. In addition, at human mGlu2 receptor (setting [1]), the Emax came to 104%. On human mGlu2 receptor (setting [2]), the IC50 was 6.17e-09 M.
For `C[C@H]1CN(c2ccc(C(F)(F)F)cc2)C(=O)c2c(NC(=O)c3ccnc(N)c3)cnn21` [Co. No. 50], in that order: 225.63 °C, 104% and 1.38e-08 M.
The corresponding values for `Cc1cc(C(=O)Nc2cnn3c2C(=O)N(c2ccc(C(F)(F)F)cc2)C[C@@H]3C)[nH]n1` [Co. No. 89] are 285.92 °C, 100% and 2.45e-07 M.
Molecule `C[C@H]1CN(c2ccccc2)C(=O)c2c(NC(=O)c3ccnc(N)c3)cnn21` [Co. No. 97] displayed a melting point of 153.01 °C. Further, at human mGlu2 receptor (setting [1]), the Emax came to 111%. In addition, the IC50 on human mGlu2 receptor (setting [2]) is 3.16e-07 M.
For the molecule `COc1ccc(C(=O)Nc2cnn3c2C(=O)N(c2ccc(C(F)(F)F)cc2)C[C@@H]3C)cc1F` [Co. No. 23], the melting point was 152.43 °C. In addition, at human mGlu2 receptor (setting [1]), the maximal response (Emax) was determined as 105%. At human mGlu2 receptor (setting [2]), the IC50 is 5.5e-09 M.
In the case of `C[C@H]1CN(c2ccc(C(F)(F)F)cc2)C(=O)c2c(NC(=O)c3ccc(C#N)cn3)cnn21` [Co. No. 85], the melting point came to 291.58 °C. For the same molecule, at human mGlu2 receptor (setting [1]), the maximal response (Emax) came to 106%. The IC50 on human mGlu2 receptor (setting [2]) is 1.66e-07 M.
In turn, `Cc1cc(C(=O)Nc2cnn3c2C(=O)N(c2ccc(C(F)(F)F)c(F)c2)C[C@@H]3C)ccn1` [Co. No. 130] had a melting point of 134.44 °C. Moreover, on human mGlu2 receptor (setting [1]), the Emax came to 107%. Further, the IC50 at human mGlu2 receptor (setting [2]) is 7.41e-09 M.
In the case of `COc1cc(C(=O)Nc2cnn3c2C(=O)N(c2ccc(C(F)(F)F)cc2)C[C@@H]3C)ccc1F` [Co. No. 51], the melting point turned out to be 140.98 °C. Also, the Emax on human mGlu2 receptor (setting [1]) is 113%. Further, the IC50 at human mGlu2 receptor (setting [2]) is 1.45e-08 M.
`Cc1ccc(C(=O)Nc2cnn3c2C(=O)N(c2ccc(C(F)(F)F)cc2)C[C@@H]3C)cc1` [Co. No. 53] displayed a melting point of 198.98 °C. The Emax on human mGlu2 receptor (setting [1]) turned out to be 104%. The IC50 at human mGlu2 receptor (setting [2]) is 1.78e-08 M.
`COCC1CN(c2ccc(C(F)(F)F)cc2)C(=O)c2c(NC(=O)c3ccc(N)nc3)cnn21` (single isomer, unassigned) [Co. No. 96] gave a melting point of 225.83 °C. Also, the Emax at human mGlu2 receptor (setting [1]) was determined as 95%. Further, the IC50 at human mGlu2 receptor (setting [2]) is 1.45e-06 M.
`C[C@H]1CN(c2ccc(C(F)(F)F)cc2)C(=O)c2c(NC(=O)c3ccc(S(=O)(=O)F)cc3)cnn21` [Co. No. 218] yielded a melting point of 163.64 °C. Also, the IC50 at human mGlu2 receptor (GTPγS-hmGluR2 anGT pIC50, membranes from CHO cells transfected with human mGlu2 receptor) was 4.37e-08 M. Besides, the Emax on human mGlu2 receptor came to 112%.
`COc1ccc(C(=O)Nc2cnn3c2C(=O)N(c2ccc(C(F)(F)F)c(OC)n2)C[C@@H]3C)cc1` [Co. No. 77] returned a melting point of 194.9 °C. The Emax on human mGlu2 receptor (setting [1]) turned out to be 103%. In addition, at human mGlu2 receptor (setting [2]), the IC50 was 7.76e-08 M.
In the case of `COc1cc(C(=O)Nc2cnn3c2C(=O)N(c2ccc(C(F)(F)F)cc2)C[C@@H]3C)ccn1` [Co. No. 47], the melting point stood at 128.68 °C. On human mGlu2 receptor (setting [1]), the Emax was 101%. Further, the IC50 at human mGlu2 receptor (setting [2]) was 1.29e-08 M.
